How the values were obtained:
Format in all cases: in vivo
[1] = tested on: upland rice (Oryza sp., var. Tebonnet, RICE); test: Post-emerge test, crop safety; conditions: post-emerge, 14 days after application, rating scale 0-100
Procedure, shortened: (§1)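 Each test used a mechanized track sprayer delivering 187 l/ha of acetone solution at 15–1000 g ai/ha. Post-emerge foliage at 2–3 leaves was treated with added 0.25% v/v non-ionic surfactant and bottom-watered only. Injury was assessed on day 14, where 100 means total kill.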

[2] = tested on: field corn (Zea mays L., var. Dekalb 535, CORN); test: Post-emerge test, crop safety; conditions: post-emerge, 14 days after application, rating scale 0-100
Procedure, shortened: as §1

[3] = tested on: sicklepod (Cassia obtusifolia, CASOB); test: Post-emerge test, greenhouse herbicide activity screening; conditions: post-emerge, 14 days after application, rating scale 0-100
Excerpt: (§2) A standard greenhouse herbicide activity screening system was used to evaluate the herbicidal efficacy and crop safety of these test compounds. Seven broadleaf weed species including redroot pigweed (Amaranthus retroflexus, AMARE, velvetleaf (Abutilon theophrasti, ABUTH), sicklepod (Cassia obtusifolia, CASOB), ivyleaf morningglory (Ipomoea hederacea, IPOHE), lambsquarters (Chenopodium album, CHEAL), common ragweed (Ambrosia artemisizfolia L., AMBEL), and cocklebur (Xanthium strumarium, XANST) were used as test species. Four grass weed species including green foxtail (Setaria viridis, SETVI), barnyardgrass (Echinochloa crus-galli, ECHCG), johnsongrass (Sorghum halepense, SORHA), and large crabgrass (Digitaria sanguinalis, DIGSA) were also used. In addition, three crop species, field corn (Zea mays L., var. Dekalb 535, CORN), soybean (Glycine max L., var. Pella 86, SOY), and is upland rice (Oryza sp., var. Tebonnet, RICE) were included.
(§3) All plants were grown in 10 cm square plastic pots which were filled with a sandy loam soil mix. For pre-emerge tests, seeds were planted one day prior to application of the test compounds. For post-emerge tests, seeds were planted 8-21 days prior to the test to allow emergence and good foliage development prior to application of the test substances. At the time of the post-emerge application, plants of all species were usually at the 2-3 leaf stage of development.
(§4) All test compounds Were dissolved in acetone and applied to the test units in a volume of 187 l /ha. Test materials were applied at rates ranging from 15 g ai/ha to 1000 g ai/ha using a track sprayer equipped with a TJ8001E even flow flat fan spray nozzle. Plants were arranged on a shelf so that the top of the canopy (post-emerge) or top of the soil surface (pre-emerge) was 40-45 cm below the nozzle. Pressurized air was used to force the test solution through the nozzle as it was mechanically advanced (via electrically driven chain drive) over the top of all test plants/pots. This application simulates a typical commercial field herbicide application.
(§5) In the post-emerge test, a commercial non-ionic surfactant was also included (0.25% v/v) to enhance wetting of the leaf surfaces of target plants. Immediately after application, test units of the pre-emerge applications were watered at the soil surface to incorporate the test materials. Subsequently, these test units were bottom-watered. Post-emerge test units were always bottom-watered.
(§6) At 14 days after application of the test materials, phytotoxicity ratings were recorded. A rating scale of 0-100 was used as previously described in Research Methods in Weed Science, 2nd edition, B. Truelove, Ed., Southern Weed Science Society, Auburn University, Auburn, Ala. 1977. Briefly, “0” corresponds to no damage and “100” corresponds to complete death of all plants in the test unit. This scale was used both to determine efficacy against weed species and damage to crop species. Herbicide activity data for various compounds of this invention, which are shown by compound No. in Tables 1-8, are shown in Tables 11 and 12.

[4] = tested on: ivyleaf morningglory (Ipomoea hederacea, IPOHE); test: as above; conditions: post-emerge, 14 days after application, rating scale 0-100
Excerpt: as §2, §3, §4, §5, §6

[5] = tested on: redroot pigweed (Amaranthus retroflexus, AMARE); test: as above; conditions: post-emerge, 14 days after application
Excerpt: as §2, §3, §4, §5, §6

[6] = tested on: velvetleaf (Abutilon theophrasti, ABUTH); test: as above; conditions: post-emerge, 14 days after application, rating scale 0-100
Excerpt: as §2, §3, §4, §5, §6

[7] = tested on: lambsquarters (Chenopodium album, CHEAL); test: as above; conditions: post-emerge, 14 days after application, rating scale 0-100
Excerpt: as §2, §3, §4, §5, §6

[8] = tested on: barnyardgrass (Echinochloa crus-galli, ECHCG); test: as above; conditions: post-emerge, 14 days after application, rating scale 0-100
Excerpt: as §2, §3, §4, §5, §6

[9] = tested on: large crabgrass (Digitaria sanguinalis, DIGSA); test: as above; conditions: post-emerge, 14 days after application, rating scale 0-100
Excerpt: as §2, §3, §4, §5, §6

[10] = tested on: green foxtail (Setaria viridis, SETVI); test: as above; conditions: post-emerge, 14 days after application, rating scale 0-100
Excerpt: as §2, §3, §4, §5, §6

[11] = tested on: upland rice (Oryza sp., var. Tebonnet, RICE); test: Pre-emerge test, crop safety; conditions: crop damage rating 0-100, 14 days after application
Procedure, shortened: (§7)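 Fourteen days after spraying, crop and weed injury was graded visually from 0, no effect, to 100, every plant dead. Test substances were dissolved in acetone and applied at 15–1000 g ai/ha with a flat-fan nozzle. Application was either pre-emergence, one day after sowing, or post-emergence at the 2–3 leaf stage.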

[12] = tested on: field corn (Zea mays L., var. Dekalb 535, CORN); test: Pre-emerge test, crop safety; conditions: crop damage rating 0-100, 14 days after application
Procedure, shortened: as §7

[13] = tested on: sicklepod (Cassia obtusifolia, CASOB); test: Pre-emerge test, greenhouse herbicide activity screening; conditions: phytotoxicity rating 0-100, 14 days after application
Excerpt: as §2, §3, §4, §5, §6

[14] = tested on: ivyleaf morningglory (Ipomoea hederacea, IPOHE); test: as above; conditions: phytotoxicity rating 0-100, 14 days after application
Excerpt: as §2, §3, §4, §5, §6

[15] = tested on: velvetleaf (Abutilon theophrasti, ABUTH); test: as above; conditions: phytotoxicity rating 0-100, 14 days after application
Excerpt: as §2, §3, §4, §5, §6

[16] = tested on: lambsquarters (Chenopodium album, CHEAL); test: as above; conditions: phytotoxicity rating 0-100, 14 days after application
Excerpt: as §2, §3, §4, §5, §6

[17] = tested on: barnyardgrass (Echinochloa crus-galli, ECHCG); test: as above; conditions: phytotoxicity rating 0-100, 14 days after application
Excerpt: as §2, §3, §4, §5, §6

[18] = tested on: large crabgrass (Digitaria sanguinalis, DIGSA); test: as above; conditions: phytotoxicity rating 0-100, 14 days after application
Excerpt: as §2, §3, §4, §5, §6

[19] = tested on: green foxtail (Setaria viridis, SETVI); test: as above; conditions: phytotoxicity rating 0-100, 14 days after application
Excerpt: as §2, §3, §4, §5, §6

[20] = tested on: redroot pigweed (Amaranthus retroflexus, AMARE); test: as above; conditions: phytotoxicity rating 0-100, 14 days after application
Procedure, shortened: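 Rating: 0–100 visual injury, 14 DAA. Application: acetone, 187 l/ha, 15–1000 g ai/ha, flat-fan track sprayer with nozzle 40–45 cm above soil or canopy. Post-emerge runs used 0.25% v/v surfactant on 2–3 leaf plants.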

SMILES: COc1ccc(COC(=O)Nc2c(OC)c(Cl)cc(F)c2-n2c(=O)cc(C(F)(F)F)n(C)c2=O)cc1 [4-40]
- phytotoxicity rating RICE (crop damage) ([1]; 63 g ai/ha): 40
- phytotoxicity rating RICE (crop damage) ([1]; 250 g ai/ha): 60
- phytotoxicity rating CORN (crop damage) ([2]; 63 g ai/ha): 30
- phytotoxicity rating CORN (crop damage) ([2]; 250 g ai/ha): 70
- phytotoxicity rating CASOB ([3]; 63 g ai/ha): 100
- phytotoxicity rating CASOB ([3]; 250 g ai/ha): 100
- phytotoxicity rating IPOHE ([4]; 63 g ai/ha): 100
- phytotoxicity rating IPOHE ([4]; 250 g ai/ha): 100
- phytotoxicity rating AMARE ([5]; 63 g ai/ha, rating scale 0-100 (0 no damage, 100 complete death)): 100
- phytotoxicity rating AMARE ([5]; 250 g ai/ha, rating scale 0-100): 100
- phytotoxicity rating ABUTH ([6]; 63 g ai/ha): 100
- phytotoxicity rating ABUTH ([6]; 250 g ai/ha): 100
- phytotoxicity rating CHEAL ([7]; 63 g ai/ha): 100
- phytotoxicity rating CHEAL ([7]; 250 g ai/ha): 100
- phytotoxicity rating ECHCG ([8]; 63 g ai/ha): 50
- phytotoxicity rating ECHCG ([8]; 250 g ai/ha): 90
- phytotoxicity rating DIGSA ([9]; 63 g ai/ha): 40
- phytotoxicity rating DIGSA ([9]; 250 g ai/ha): 90
- phytotoxicity rating SETVI ([10]; 63 g ai/ha): 80
- phytotoxicity rating SETVI ([10]; 250 g ai/ha): 90
- Pre-emerge Herbicidal Activity RICE ([11]; 63 g ai/ha): 30
- Pre-emerge Herbicidal Activity RICE ([11]; 250 g ai/ha): 70
- Pre-emerge Herbicidal Activity CORN ([12]; 63 g ai/ha): 0
- Pre-emerge Herbicidal Activity CORN ([12]; 250 g ai/ha): 75
- Pre-emerge Herbicidal Activity CASOB ([13]; 63 g ai/ha): 60
- Pre-emerge Herbicidal Activity CASOB ([13]; 250 g ai/ha): 90
- Pre-emerge Herbicidal Activity IPOHE ([14]; 63 g ai/ha): 30
- Pre-emerge Herbicidal Activity IPOHE ([14]; 250 g ai/ha): 90
- Pre-emerge Herbicidal Activity ABUTH ([15]; 63 g ai/ha): 100
- Pre-emerge Herbicidal Activity ABUTH ([15]; 250 g ai/ha): 100
- Pre-emerge Herbicidal Activity CHEAL ([16]; 63 g ai/ha): 100
- Pre-emerge Herbicidal Activity CHEAL ([16]; 250 g ai/ha): 100
- Pre-emerge Herbicidal Activity ECHCG ([17]; 63 g ai/ha): 60
- Pre-emerge Herbicidal Activity ECHCG ([17]; 250 g ai/ha): 85
- Pre-emerge Herbicidal Activity DIGSA ([18]; 63 g ai/ha): 100
- Pre-emerge Herbicidal Activity DIGSA ([18]; 250 g ai/ha): 100
- Pre-emerge Herbicidal Activity SETVI ([19]; 63 g ai/ha): 100
- Pre-emerge Herbicidal Activity SETVI ([19]; 250 g ai/ha): 100
- Pre-emerge Herbicidal Activity AMARE ([20]; 63 g ai/ha): 100
- Pre-emerge Herbicidal Activity AMARE ([20]; 250 g ai/ha): 100

From patent publication US6355799B1, “Substituted benzene compounds, process for their preparation, and herbicidal and defoliant compositions containing them” (ISK Americas Incorporated, priority 1997, dated 2002)
